Assay results reported in ChEMBL document CHEMBL5523757, “Discovery, Synthesis, and Activity Evaluation of Novel Five-Membered Sulfur-Containing Heterocyclic Nucleosides as Potential Anticancer Agents In Vitro and In Vivo” (J Med Chem, 2024).

Key:
Type in all cases: functional, cell-based
MCF7 = test: Antiproliferative activity against human MCF7 cells assessed as inhibition of cell growth incubated for 48 hrs by CCK-8 assay
HCT-116 = test: Antiproliferative activity against human HCT-116 cells assessed as inhibition of cell growth incubated for 48 hrs by CCK-8 assay
HeLa = test: Antiproliferative activity against human HeLa cells assessed as inhibition of cell growth incubated for 48 hrs by CCK-8 assay
HepG2 = test: Antiproliferative activity against human HepG2 cells assessed as inhibition of cell growth incubated for 48 hrs by CCK-8 assay; conditions: hepg2
A549 = test: Antiproliferative activity against human A549 cells assessed as inhibition of cell growth incubated for 48 hrs by CCK-8 assay; conditions: a549
PANC-1 = test: Antiproliferative activity against human PANC-1 cells assessed as inhibition of cell growth incubated for 48 hrs by CCK-8 assay; conditions: panc-1

| IC50 (MCF7; Homo sapiens, MCF7, 48 h) | IC50 (HCT-116; Homo sapiens, HCT-116, 48 h) | IC50 (HeLa; Homo sapiens, HeLa, 48 h) | SMILES | further results |
| --- | --- | --- | --- | --- |
| 19.4 µM | 30.1 µM | 14.4 µM | CCOC(=O)C[C@H]1CSC[C@]1(C(=O)OCC)n1cnc2c(Br)ncnc21 (racemic) |  |
| 25.9 µM | 17.1 µM | 10.5 µM | CCOC(=O)C[C@H]1C[S+]([O-])C[C@]1(C(=O)OCC)n1cnc2c(Cl)nc(Cl)nc21 (some centres undefined) |  |
| > 50 µM | 19.2 µM | 11.6 µM | CCOC(=O)C[C@H]1CSC[C@]1(C(=O)OC)n1cnc2c(Cl)ncnc21 (racemic) |  |
| > 50 µM | > 50 µM | > 50 µM | CCOC(=O)C[C@@H]1CSC[C@]1(C(=O)OCC)n1cnc2c(N3CCOCC3)ncnc21 (racemic) |  |
| 30.9 µM | 25.9 µM | 37.2 µM | CCCSc1ncnc2c1ncn2[C@@]1(C(=O)OCC)CSC[C@@H]1CC(=O)OCC (racemic) |  |
| 22.9 µM | 11 µM | 8.8 µM | CCOC(=O)C[C@H]1CSC[C@]1(C(=O)OCC)n1cnc2c(Cl)nc(F)nc21 (racemic) |  |
| 13 µM | 14.7 µM | 9.99 µM | CCOC(=O)C[C@H]1CSC[C@]1(C(=O)OC(C)C)n1cnc2c(Cl)ncnc21 (racemic) |  |
| > 50 µM | > 50 µM | 49.6 µM | CCOC(=O)C[C@@H]1CSC[C@]1(C(=O)OCC)n1cnc2c(Br)ncnc21 (racemic) |  |
| > 50 µM | > 50 µM | > 50 µM | CCOC(=O)C[C@H]1CSC[C@]1(C(=O)OCC)n1cnc2c(N3CCOCC3)ncnc21 (racemic) |  |
| 44.8 µM | 38.2 µM | 13.6 µM | CCOC(=O)C[C@@H]1CSC[C@]1(C(=O)OC(C)C)n1cnc2c(Cl)ncnc21 (racemic) |  |
| > 50 µM | > 50 µM | > 50 µM | CCOC(=O)C[C@@H]1CSC[C@]1(C(=O)OCC)n1cnc2cnc(Cl)nc21 (racemic) |  |

Continued, molecule first:

| SMILES | IC50 (MCF7; Homo sapiens, MCF7, 48 h) | IC50 (HCT-116; Homo sapiens, HCT-116, 48 h) | IC50 (HeLa; Homo sapiens, HeLa, 48 h) | further results |
| --- | --- | --- | --- | --- |
| CCOC(=O)C[C@@H]1CSC[C@]1(C(=O)OCC)n1cnc2c(N3CCCC3)nc(Cl)nc21 (racemic) | > 50 µM | 34 µM | 38.3 µM |  |
| CCOC(=O)C[C@@H]1CSC[C@]1(C(=O)OCC)n1cnc2c(Cl)ncnc21 (racemic) | 43.5 µM | 19.4 µM | 12.5 µM |  |
| CCOC(=O)C[C@@H]1CSC[C@]1(C(=O)OC)n1cnc2c(Cl)ncnc21 (racemic) | > 50 µM | 31.8 µM | 12.5 µM |  |
| CCOC(=O)C[C@H]1CS(=O)(=O)C[C@]1(C(=O)OCC)n1cnc2c(Cl)nc(Cl)nc21 | 16.2 µM | 11.2 µM | 7.67 µM |  |
| CCOC(=O)C[C@@H]1CSC[C@]1(C(=O)OCC)n1cnc2c(-c3ccccc3)ncnc21 (racemic) | 19.4 µM | 25.1 µM | 42.9 µM |  |
| CCOC(=O)C[C@@H]1CSC[C@]1(C(=O)OCC)n1cnc2c(Cl)nc(F)nc21 (racemic) | 27.9 µM | 15.9 µM | 14.5 µM |  |
| CCOC(=O)C[C@@H]1CSC[C@]1(C(=O)OCC)n1cnc2cncnc21 (racemic) | > 50 µM | > 50 µM | > 50 µM |  |
| CCOC(=O)C[C@H]1CSC[C@]1(C(=O)OCC)n1cnc2c(Cl)nc(Cl)nc21 |  |  |  | IC50 (HepG2): > 50 µM; IC50 (MCF7; mcf7): 5.82 µM; IC50 (A549): > 50 µM; IC50 (PANC-1): 27.5 µM; IC50 (HCT-116; hct-116): 4.16 µM; IC50 (HeLa; hela): 7.43 µM |
| CCOC(=O)C[C@H]1CSC[C@]1(C(=O)OCC)n1cnc2c(N(CC)CC)ncnc21 (racemic) | > 50 µM | > 50 µM | > 50 µM |  |
| CCOC(=O)C[C@@H]1CSC[C@]1(C(=O)OCC)n1cnc2c(N3CCCCC3)ncnc21 (racemic) | 42.2 µM | 32 µM | > 50 µM |  |
| CCOC(=O)C[C@H]1CSC[C@]1(C(=O)OCC)n1cnc2c(OC)ncnc21 (racemic) | > 50 µM | > 50 µM | > 50 µM |  |
